Data reported in US20080064679A1, “Water Soluble Cannabinoids” (priority 2004, published 2008).
Several values for one entry are separate records, joined by “and”; a condition that tells them apart may be missing. Identical values can stand only once. Entries after “also recorded” stand apart in the source; their conditions may differ. Like-named read-outs stand apart in the source and are kept apart here.

Columns and labels:
[1] = target: T1, human CB2 receptor (Homo sapiens, UniProt P34972); test: CB2 receptor binding, [3H]CP55,940 displacement in membranes of transfected cells; conditions: mean±SEM, read-out: CB2 Ki
T1 construct: expressed in transfected cells; b94 says HEK for CB2
Method: cLogP calculations. Absolute solubility determinations were not performed. Rather, cLogP calculations were performed using the CS ChemDraw Ultra software (Cambridge Soft Corporation, Cambridge, Mass.). Receptor Binding. HEK-293 cells stably expressing the human CB1 receptor were cultured in DMEM with 10% FBS and Chinese Hamster Ovary (CHO) cells stably expressing the human CB2 receptor were cultured in DMEM with 10% FCS. Cells were harvested by replacement of the media with cold phosphate-buffered saline containing 1 mM EDTA followed by centrifugation at 1000×g for 5 min at 4° C. The pellet was resuspended in 50 mM Tris-HCl containing 320 mM sucrose, 2 mM EDTA and 5 mM MgCl2 (pH 7.4) (centrifugation buffer), then centrifuged at 1000×g for 10 min at 4° C., and the resulting supernatant was saved. This process was repeated twice. The supernatant fractions were combined and centrifuged at 40,000×g for 30 min at 4° C. The resulting P2 pellet was resuspended in assay buffer (50 mM Tris-HCl (pH 7.4), 3 mM MgCl2, 0.2 mM EGTA, and 100 mM NaCl) and protein was determined by the method of Bradford ENRfu(Bradford 1976). Membranes were stored at −80° C. until use. […] The assay was incubated at 30° C. for 1 hr and terminated by addition of ice cold 50 mM Tris-HCl plus BSA (1 mg/ml) (pH 7.4) followed by filtration under vacuum through Whatman GF/B glass fiber filters with 3 washes with cold Tris buffer. Bound radioactivity was determined by liquid scintillation spectrophotometry at 50% efficiency after extraction by shaking samples for 30-60 min with Budget-Solve scintillation fluid. Data are reported as the mean±SEM of three experiments, each performed in triplicate. Ki values were calculated from displacement data using EBDA (Equilibrium Binding Data Analysis; BIOSOFT, Milltown, N.J.). [^35S]GTPγS Binding Assays. Concentration-effect curves were generated by incubating membranes (10 μg prepared from CB1 expressing cells as described above) in assay buffer containing BSA (1 mg/ml) with various concentrations of test compounds in the presence of 20 μM GDP and 0.1 nM [^35S]GTPγS in a 1 ml total volume. […] Basal binding was assessed in the absence of agonist, and nonspecific binding was measured in the presence of 10 μM GTPγS. The reaction was incubated for 90 min at 30° C. and terminated by filtration under vacuum through Whatman GF/B glass fiber filters with 3 washes with cold (4° C.) Tris buffer (50 mM Tris-HCl, pH 7.4). Bound radioactivity was determined by liquid scintillation spectrophotometry at 95% efficiency after extraction overnight in ScintiSafe Econo 1 scintillation fluid. Data are reported as mean±SEM of three experiments, each performed in triplicate. Nonlinear regression analysis was conducted by iterative fitting using JMP (SAS for Macintosh). Net-stimulated [^35S]GTPγS binding is defined as [^35S]GTPγS binding in the presence of drug minus basal and percent stimulation is expressed as (net stimulated [^35S]GTPγS binding/basal)×100%. Behavioral Evaluations. All animals were allowed to acclimate to the observation room overnight. Behavioral effects were assessed in the tetrad model in order to measure potency in producing antinociception, catalepsy, hypothermia, and hypomobility. The baselines for tail-flick latency (2-4 seconds) and rectal temperature were determined prior to i.v. injections. Baseline rectal temperatures were measured using a telethermometer and a thermometer probe inserted to 25 mm (Yellow Springs Instrument Co., Yellow Springs, Ohio). The mice were then given either an i.v. i.c.v. injection of the analog. The mice were placed in individual photocell activity chambers 5 min later. Spontaneous activity was monitored for 10 min in a Digiscan Animal Activity Monitor (Omnitech Electronice, Inc., Columbus, Ohio) as measured by the number of interruptions of 16 photocell beams per chamber. The total number of beam interruptions during the 10-min period was determined and presented as total counts.

[2] = tested on: mice; test: Tetrad model, all four behavioral measures together (time course, oral and i.c.v. administration); format: in vivo, mouse; conditions: for In vivo potency relative to Δ^9-THC (times more potent): i.v., 1:1:18 vehicle; for Potency following oral administration (four tests) / Time course of effects following oral administration: 10 mg/kg; for Potency following oral administration (four tests): 30 minutes before the start of testing; for Time course of effects following oral administration: different time points before testing
[3] = Stability in buffer, plasma and microsomal enzymes

T1 sequence (P34972 whole entry): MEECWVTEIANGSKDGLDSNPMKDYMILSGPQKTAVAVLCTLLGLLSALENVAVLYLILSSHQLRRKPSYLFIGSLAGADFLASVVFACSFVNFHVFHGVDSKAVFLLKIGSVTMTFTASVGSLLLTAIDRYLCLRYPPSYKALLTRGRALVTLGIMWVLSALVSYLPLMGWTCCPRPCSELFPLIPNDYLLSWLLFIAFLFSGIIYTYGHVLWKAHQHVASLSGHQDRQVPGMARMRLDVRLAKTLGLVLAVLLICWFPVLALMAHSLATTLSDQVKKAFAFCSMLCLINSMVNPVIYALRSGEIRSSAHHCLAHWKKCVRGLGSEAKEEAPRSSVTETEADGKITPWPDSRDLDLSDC

Molecule “1-(2-methyl-4-N-piperidinobutyryloxy) [O-2374]” has a Ki ([1]; Tables 2b, 3b, 4a) of 1.1 ± 0.1 nM.
In the case of `CC1=CC[C@@H]2[C@@H](C1)c1c(O)cc(C(C)(C)CCCCC(N)=O)cc1OC2(C)C` [O-2352, Carboxamido], the “In vivo potency relative to Δ^9-THC (times more potent)” value ([2]; mice) is reported as “slightly more potent than Δ^9-THC” and the Ki ([1]; Table 1B) is reported as 0.84 ± 0.05 nM.
With `CC1=CC[C@@H]2[C@@H](C1)c1c(O)cc(C(C)(C)CCCCC(=O)N3CCOCC3)cc1OC2(C)C` [O-2372, Morpholino-carboxamido] the Ki ([1]; Table 1B) was 0.57 ± 0.04 nM.
With `CC1=CC[C@@H]2[C@@H](C1)c1c(O)cc(C(C)(C)CCCCC(=O)N3CCCCC3)cc1OC2(C)C` [O-2373, Piperidino-carboxamido] the Ki ([1]; Table 1B) was 0.96 ± 0.01 nM.
In the case of `CC1=CC[C@@H]2[C@@H](C1)c1c(O)cc(C(C)(C)CCCCC(=O)N3CCN(C)CC3)cc1OC2(C)C` [O-2381, Methylepiperazino-carboxamido], the Ki ([1]; Table 1B) is reported as 389 ± 46 nM.
With `CC1=CC[C@@H]2[C@@H](C1)c1c(O)cc(C(C)(C)CCCCC(=O)N3CCCC3)cc1OC2(C)C` [O-2399, Pyrrolidino-carboxamido] the Ki ([1]; Table 1B) was 2.86 ± 0.68 nM.
With `CC1=CC[C@@H]2[C@@H](C1)c1c(O)cc(C(C)(C)CCCCC(=O)N3CCCCCC3)cc1OC2(C)C` [O-2421, Homopiperidino-carboxamido] the Ki ([1]; Table 1B) was 3.45 ± 0.58 nM.
Work on `CC1=CC[C@@H]2[C@@H](C1)c1c(O)cc(C(C)(C)CCCCC(=O)NN3CCCCCC3)cc1OC2(C)C` [O-2489, N-(Homo-piperidin-1-yl)-carboxamido] yielded a Ki ([1]; Table 1B) of 35.3 ± 4.48 nM.
For `CNC(=O)CCCCC(C)(C)c1cc(O)c2c(c1)OC(C)(C)[C@@H]1CC=C(C)C[C@@H]21` [O-2490, N-(Methyl)carboxamido], the “Maximal effects in hypothermia and catalepsy assays” value ([2]; dose 1 mg/kg that produced maximal effects in the other two measures) was “failed to produce maximal effects in hypothermia and catalepsy assays” and the Ki ([1]; Table 1B) was 3.16 ± 0.75 nM.
`CC1=CC[C@@H]2[C@@H](C1)c1c(O)cc(C(C)(C)CCCCC(=O)NN3CCCC3)cc1OC2(C)C` [O-2543, N-(Pyrrolidin-yl)-carboxamido] gave a Ki ([1]; Table 1B) of 10.8 ± 0.08 nM.
`CC1=CC[C@@H]2[C@@H](C1)c1c(O)cc(C(C)(C)CCCCC(=O)NN3CCOCC3)cc1OC2(C)C` [O-2544, N-(Morpholin-1-yl)-carboxamido] gave a Ki ([1]; Table 1B) of 11.4 ± 0.91 nM.
In the case of `CC1=CC[C@@H]2[C@@H](C1)c1c(O)cc(C(C)(C)CCCCn3ccnc3)cc1OC2(C)C` [O-2545, Imidazol-1-yl], the “Time course of effects after i.v. administration” value ([2]; FIG. 10, 0.24 μmoles/kg i.v., saline) is reported as “At 1 hr all effects, except ring immobility, are present but only antinociception is present at 2 hours”, the “Activity in the behavioral tests after i.c.v. injection” value ([2]; i.c.v., analogs dissolved in water, THC in emulphor:ethanol:saline, Table 5 not given) is reported as “the most potent” and the “In vivo potency relative to Δ^9-THC (times more potent)” value ([2]; mice) is reported as “at least 40 fold”. The “Potency following oral administration (four tests)” value [2] was “fully effective in producing antinociception, hypothermia and ring immobility but was only a partial agonist in producing sedation”, the “Time course of effects following oral administration” value [2] was “By four hrs the effects had largely dissipated; also recorded: produce the full range of effects up to 2 hours” and the Ki ([1]; Tables 2b, 3b, 4a) was 0.12 nM and 0.32 nM. For the same molecule, the “Stability in buffer, plasma and microsomal enzymes” value [3] was “excellent stability in buffer and plasma and microsomal enzymes”.
With `CC1=CC[C@@H]2[C@@H](C1)c1c(O)cc(C(C)(C)CCCCn3ccnc3C)cc1OC2(C)C` [O-2651, 2-Methyl-imidazol-1-y1] the “In vivo potency, fold less potent than the hydrochloride salt of O-2545” value ([2]; mice, administered in saline) was “at least 10 fold” and the Ki ([1]; Tables 2b, 3b, 4a) was 1.22 ± 0.28 nM.
With `CC1=CC[C@@H]2C(C1)c1c(OC(=O)CCCN(C(C)C)C(C)C)cc(C(C)(C)CCCCC(=O)N3CCOCC3)cc1OC2(C)C` (stereo partly shown) [O-2694, Diisopropylaminobutyrate of Δ^8-THC-3-(1,1-dimethyl-6-morpholin-4-yl-6-oxo-hexyl)] the Ki ([1]; Tables 2b, 3b, 4a) was 2.77 ± 0.44 nM.
In the case of `CC1=CC[C@@H]2[C@@H](C1)c1c(O)cc(C(C)(C)CCCCn3cccn3)cc1OC2(C)C` [O-2715, Pyrazol-1-yl], the “Time course of effects after i.v. administration” value ([2]; FIG. 12, 0.3 mg/kg (0.74 μmoles/kg) i.v., vehicle 1:1:18) is reported as “duration of antinociception and hypothermia exceeded that of sedation and relative immobility”, the “Potency following oral administration (four tests)” value [2] is reported as “active in all tests” and the “Time course of effects following oral administration” value [2] is reported as “negligible effects at one hr; also recorded: effects that lasted only 1 hour”. The Ki ([1]; Tables 2b, 3b, 4a) was 1.52 ± 0.31 nM.
In the case of `CC1=CC[C@@H]2[C@@H](C1)c1c(O)cc(C(C)(C)CCCCn3cncn3)cc1OC2(C)C` [O-2716, 1,2,4-Triazol-1-yl], the “Time course of effects after i.v. administration” value ([2]; FIG. 11, 0.1 mg/kg (0.24 μmoles/kg) i.v., vehicle 1:1:18) is reported as “relatively short acting with most of the effects gone by 1 hour and no separation of effects”, the “Time course of effects following oral administration” value [2] is reported as “Maximal effects were observed at 30 min and only a slight decrease in activity was observed at 2 hrs; also recorded: effects lasted at least 2 hours” and the Ki ([1]; Tables 2b, 3b, 4a) is reported as 0.92 ± 0.07 nM.
For `CC1=CC[C@@H]2[C@@H](C1)c1c(O)cc(C(C)(C)CCCCc3ncc[nH]3)cc1OC2(C)C` [O-2737, 1H-Imidazol-2-yl], the Ki ([1]; Tables 2b, 3b, 4a) was 14.8 ± 1.14 nM.
